Source: PMC9019041, “Structural insights into the peptide selectivity and activation of human neuromedin U receptors” (Nature Communications, 2022)
Like-named read-outs stand apart in the source and are kept apart here. Where no end group is shown, it is not given here.

Experiments:
Type in all cases: cell-based
[1] = target: T1, NMUR2 Y110A (Homo sapiens, UniProt Q9GZQ4, Y110A); test: IP-One assay, NMUR2 Y110A; details: mean ± S.E.M., three independent experiments (n=3), SEM, read-out: IP1 accumulation pEC50 ± S.E.M. (converted)
T1 construct: expressed in transfected cells; host or cells: AD293 cells
T1 sequence (Q9GZQ4 whole entry Y110A): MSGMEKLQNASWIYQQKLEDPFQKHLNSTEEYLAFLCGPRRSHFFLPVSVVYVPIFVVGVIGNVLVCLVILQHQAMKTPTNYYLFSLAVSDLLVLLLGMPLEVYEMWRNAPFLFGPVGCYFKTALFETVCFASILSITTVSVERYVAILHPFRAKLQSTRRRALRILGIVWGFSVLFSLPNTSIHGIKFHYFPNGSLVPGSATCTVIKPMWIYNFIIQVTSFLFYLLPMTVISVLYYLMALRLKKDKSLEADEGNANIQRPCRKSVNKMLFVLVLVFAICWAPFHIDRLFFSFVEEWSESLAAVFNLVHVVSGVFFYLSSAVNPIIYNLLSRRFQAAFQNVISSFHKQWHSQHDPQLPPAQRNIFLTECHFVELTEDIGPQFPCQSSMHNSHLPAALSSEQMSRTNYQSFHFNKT
Description: (§1) IP-One production was measured using the IP-One HTRF kit (Cisbio)[62]. Briefly, AD293 cells (Agilent) were grown to a density of 400,000–500,000 cells per mL and then infected with separate plasmids at a suitable concentration. The culture was collected by centrifugation 24 h after incubation at 37 °C in 5% CO2 with a Stimulation Buffer. The cell suspension was then dispensed in a white 384-well plate at a volume of 7 μl per well before adding 7 μl of ligands. The mixture was incubated for 1 h at 37 °C. IP-One-d2 and anti-IP-One Cryptate dissolved in Lysis Buffer (3 μl each) were subsequently added and incubated for 15-30 min at room temperature before measurement. Intracellular IP-One measurement was carried with the IP-One HTRF kit and EnVision multi-plate reader (PerkinElmer) according to the manufacturer’s instructions. Data were normalized to the baseline response of the ligand.
(§2) The significance was determined with two-side, one-way ANOVA with Tukey’s test, and ^*P < 0.05 was considered statistically significant.

[2] = target: T2, NMUR1 F141A (Homo sapiens, UniProt Q9HB89, F141A); test: IP-One assay, NMUR1 F141A; details: mean ± S.E.M., three independent experiments (n=3), SEM, read-out: IP1 accumulation pEC50 ± S.E.M. (converted)
T2 construct: The full-length human NMUR1 and NMUR2 were modified; expressed in transfected cells; host or cells: AD293 cells
T2 sequence (Q9HB89 whole entry F141A): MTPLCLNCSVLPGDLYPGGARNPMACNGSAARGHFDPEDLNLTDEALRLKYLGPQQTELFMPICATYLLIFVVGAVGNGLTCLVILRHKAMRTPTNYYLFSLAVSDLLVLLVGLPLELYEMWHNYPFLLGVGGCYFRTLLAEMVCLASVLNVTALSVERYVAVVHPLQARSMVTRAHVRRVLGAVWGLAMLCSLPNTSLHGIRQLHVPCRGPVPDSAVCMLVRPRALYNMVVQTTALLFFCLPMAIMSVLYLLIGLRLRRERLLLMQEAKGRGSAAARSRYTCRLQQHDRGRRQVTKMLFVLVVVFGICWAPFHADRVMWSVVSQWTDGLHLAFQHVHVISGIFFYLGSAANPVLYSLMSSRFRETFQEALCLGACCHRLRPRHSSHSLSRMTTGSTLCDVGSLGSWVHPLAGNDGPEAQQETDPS
Description: as §1, §2

[3] = target: T3, NMUR2 A302G (Homo sapiens, UniProt Q9GZQ4, A302G); test: IP-One assay, NMUR2 A302G; details: mean ± S.E.M., three independent experiments (n=3), SEM, read-out: IP1 accumulation pEC50 ± S.E.M. (converted)
T3 construct: expressed in transfected cells; host or cells: AD293 cells
T3 sequence (Q9GZQ4 whole entry A302G): as the sequence (Q9GZQ4 whole entry Y110A) above, with A110Y, A302G counted along it
Description: as §1, §2

[4] = target: T4, NMUR1 F313A (Homo sapiens, UniProt Q9HB89, F313A); test: IP-One assay, NMUR1 F313A; details: mean ± S.E.M., three independent experiments (n=3), SEM, read-out: IP1 accumulation pEC50 ± S.E.M. (converted)
T4 construct: The full-length human NMUR1 and NMUR2 were modified; expressed in transfected cells; host or cells: AD293 cells
T4 sequence (Q9HB89 whole entry F313A): as the sequence (Q9HB89 whole entry F141A) above, with A141F, F313A counted along it
Description: as §1, §2

[5] = target: T5, NMUR2 T123A (Homo sapiens, UniProt Q9GZQ4, T123A); test: IP-One assay, NMUR2 T123A; details: mean ± S.E.M., three independent experiments (n=3), SEM, read-out: IP1 accumulation pEC50 ± S.E.M. (converted)
T5 construct: expressed in transfected cells; host or cells: AD293 cells
T5 sequence (Q9GZQ4 whole entry T123A): as the sequence (Q9GZQ4 whole entry Y110A) above, with A110Y, T123A counted along it
Description: as §1, §2

[6] = target: T6, NMUR2 WT (Homo sapiens, UniProt Q9GZQ4); test: IP-One assay, NMUR2 WT
T6 construct: The full-length human NMUR1 and NMUR2 were modified; expressed in transfected cells; host or cells: AD293 cells
T6 sequence (Q9GZQ4 whole entry): as the sequence (Q9GZQ4 whole entry Y110A) above, with A110Y counted along it
Description: as §1, §2

[7] = target: T7, NMUR1 Y346A (Homo sapiens, UniProt Q9HB89, Y346A); test: IP-One assay, NMUR1 Y346A; details: mean ± S.E.M., three independent experiments (n=3), SEM, read-out: IP1 accumulation pEC50 ± S.E.M. (converted)
T7 construct: The full-length human NMUR1 and NMUR2 were modified; expressed in transfected cells; host or cells: AD293 cells
T7 sequence (Q9HB89 whole entry Y346A): as the sequence (Q9HB89 whole entry F141A) above, with A141F, Y346A counted along it
Description: as §1, §2

[8] = target: T8, NMUR2 K122A (Homo sapiens, UniProt Q9GZQ4, K122A); test: IP-One assay, NMUR2 K122A; details: mean ± S.E.M., three independent experiments (n=3), SEM, read-out: IP1 accumulation pEC50 ± S.E.M. (converted)
T8 construct: expressed in transfected cells; host or cells: AD293 cells
T8 sequence (Q9GZQ4 whole entry K122A): as the sequence (Q9GZQ4 whole entry Y110A) above, with A110Y, K122A counted along it
Description: as §1, §2

[9] = target: T9, NMUR2 E127A (Homo sapiens, UniProt Q9GZQ4, E127A); test: IP-One assay, NMUR2 E127A; details: mean ± S.E.M., three independent experiments (n=3), SEM, read-out: IP1 accumulation pEC50 ± S.E.M. (converted)
T9 construct: expressed in transfected cells; host or cells: AD293 cells
T9 sequence (Q9GZQ4 whole entry E127A): as the sequence (Q9GZQ4 whole entry Y110A) above, with A110Y, E127A counted along it
Description: as §1, §2

[10] = target: T10, NMUR1 L59A (Homo sapiens, UniProt Q9HB89, L59A); test: IP-One assay, NMUR1 L59A; details: mean ± S.E.M., three independent experiments (n=3), SEM, read-out: IP1 accumulation pEC50 ± S.E.M. (converted)
T10 construct: The full-length human NMUR1 and NMUR2 were modified; expressed in transfected cells; host or cells: AD293 cells
T10 sequence (Q9HB89 whole entry L59A): as the sequence (Q9HB89 whole entry F141A) above, with L59A, A141F counted along it
Description: as §1, §2

[11] = target: T11, NMUR2 F126A (Homo sapiens, UniProt Q9GZQ4, F126A); test: IP-One assay, NMUR2 F126A; details: mean ± S.E.M., three independent experiments (n=3), SEM, read-out: IP1 accumulation pEC50 ± S.E.M. (converted)
T11 construct: expressed in transfected cells; host or cells: AD293 cells
T11 sequence (Q9GZQ4 whole entry F126A): as the sequence (Q9GZQ4 whole entry Y110A) above, with A110Y, F126A counted along it
Description: as §1, §2

[12] = target: T12, NMUR1 M121A (Homo sapiens, UniProt Q9HB89, M121A); test: IP-One assay, NMUR1 M121A; details: mean ± S.E.M., three independent experiments (n=3), SEM, read-out: IP1 accumulation pEC50 ± S.E.M. (converted)
T12 construct: The full-length human NMUR1 and NMUR2 were modified; expressed in transfected cells; host or cells: AD293 cells
T12 sequence (Q9HB89 whole entry M121A): as the sequence (Q9HB89 whole entry F141A) above, with M121A, A141F counted along it
Description: as §1, §2

[13] = target: T13, NMUR2 F284A (Homo sapiens, UniProt Q9GZQ4, F284A); test: IP-One assay, NMUR2 F284A; details: mean ± S.E.M., three independent experiments (n=3), SEM, read-out: IP1 accumulation pEC50 ± S.E.M. (converted)
T13 construct: expressed in transfected cells; host or cells: AD293 cells
T13 sequence (Q9GZQ4 whole entry F284A): as the sequence (Q9GZQ4 whole entry Y110A) above, with A110Y, F284A counted along it
Description: as §1, §2

[14] = target: T14, NMUR1 V339A (Homo sapiens, UniProt Q9HB89, V339A); test: IP-One assay, NMUR1 V339A; details: mean ± S.E.M., three independent experiments (n=3), SEM, read-out: IP1 accumulation pEC50 ± S.E.M. (converted)
T14 construct: The full-length human NMUR1 and NMUR2 were modified; expressed in transfected cells; host or cells: AD293 cells
T14 sequence (Q9HB89 whole entry V339A): as the sequence (Q9HB89 whole entry F141A) above, with A141F, V339A counted along it
Description: as §1, §2

[15] = target: T15, NMUR2 F305A (Homo sapiens, UniProt Q9GZQ4, F305A); test: IP-One assay, NMUR2 F305A; details: mean ± S.E.M., three independent experiments (n=3), SEM, read-out: IP1 accumulation pEC50 ± S.E.M. (converted)
T15 construct: expressed in transfected cells; host or cells: AD293 cells
T15 sequence (Q9GZQ4 whole entry F305A): as the sequence (Q9GZQ4 whole entry Y110A) above, with A110Y, F305A counted along it
Description: as §1, §2

[16] = target: T16, NMUR1 F345A (Homo sapiens, UniProt Q9HB89, F345A); test: IP-One assay, NMUR1 F345A; details: mean ± S.E.M., three independent experiments (n=3), SEM, read-out: IP1 accumulation pEC50 ± S.E.M. (converted)
T16 construct: The full-length human NMUR1 and NMUR2 were modified; expressed in transfected cells; host or cells: AD293 cells
T16 sequence (Q9HB89 whole entry F345A): as the sequence (Q9HB89 whole entry F141A) above, with A141F, F345A counted along it
Description: as §1, §2

[17] = target: T17, NMUR1 W320A (Homo sapiens, UniProt Q9HB89, W320A); test: IP-One assay, NMUR1 W320A; details: mean ± S.E.M., three independent experiments (n=3), SEM, read-out: IP1 accumulation pEC50 ± S.E.M. (converted)
T17 construct: The full-length human NMUR1 and NMUR2 were modified; expressed in transfected cells; host or cells: AD293 cells
T17 sequence (Q9HB89 whole entry W320A): as the sequence (Q9HB89 whole entry F141A) above, with A141F, W320A counted along it
Description: as §1, §2

[18] = target: T18, NMUR2 S312A (Homo sapiens, UniProt Q9GZQ4, S312A); test: IP-One assay, NMUR2 S312A; details: mean ± S.E.M., three independent experiments (n=3), SEM, read-out: IP1 accumulation pEC50 ± S.E.M. (converted)
T18 construct: expressed in transfected cells; host or cells: AD293 cells
T18 sequence (Q9GZQ4 whole entry S312A): as the sequence (Q9GZQ4 whole entry Y110A) above, with A110Y, S312A counted along it
Description: as §1, §2

[19] = target: T19, NMUR1 N124A (Homo sapiens, UniProt Q9HB89, N124A); test: IP-One assay, NMUR1 N124A; details: mean ± S.E.M., three independent experiments (n=3), SEM, read-out: IP1 accumulation pEC50 ± S.E.M. (converted)
T19 construct: The full-length human NMUR1 and NMUR2 were modified; expressed in transfected cells; host or cells: AD293 cells
T19 sequence (Q9HB89 whole entry N124A): as the sequence (Q9HB89 whole entry F141A) above, with N124A, A141F counted along it
Description: as §1, §2

[20] = target: T20, NMUR1 E142A (Homo sapiens, UniProt Q9HB89, E142A); test: IP-One assay, NMUR1 E142A; details: mean ± S.E.M., three independent experiments (n=3), SEM, read-out: IP1 accumulation pEC50 ± S.E.M. (converted)
T20 construct: The full-length human NMUR1 and NMUR2 were modified; expressed in transfected cells; host or cells: AD293 cells
T20 sequence (Q9HB89 whole entry E142A): as the sequence (Q9HB89 whole entry F141A) above, with A141F, E142A counted along it
Description: as §1, §2

[21] = target: T21, NMUR2 N109A (Homo sapiens, UniProt Q9GZQ4, N109A); test: IP-One assay, NMUR2 N109A; details: mean ± S.E.M., three independent experiments (n=3), SEM, read-out: IP1 accumulation pEC50 ± S.E.M. (converted)
T21 construct: expressed in transfected cells; host or cells: AD293 cells
T21 sequence (Q9GZQ4 whole entry N109A): as the sequence (Q9GZQ4 whole entry Y110A) above, with N109A, A110Y counted along it
Description: as §1, §2

[22] = target: T22, NMUR1 E117A (Homo sapiens, UniProt Q9HB89, E117A); test: IP-One assay, NMUR1 E117A; details: mean ± S.E.M., three independent experiments (n=3), SEM, read-out: IP1 accumulation pEC50 ± S.E.M. (converted)
T22 construct: The full-length human NMUR1 and NMUR2 were modified; expressed in transfected cells; host or cells: AD293 cells
T22 sequence (Q9HB89 whole entry E117A): as the sequence (Q9HB89 whole entry F141A) above, with E117A, A141F counted along it
Description: as §1, §2

[23] = target: T23, NMUR2 M106A (Homo sapiens, UniProt Q9GZQ4, M106A); test: IP-One assay, NMUR2 M106A; details: mean ± S.E.M., three independent experiments (n=3), SEM, read-out: IP1 accumulation pEC50 ± S.E.M. (converted)
T23 construct: expressed in transfected cells; host or cells: AD293 cells
T23 sequence (Q9GZQ4 whole entry M106A): as the sequence (Q9GZQ4 whole entry Y110A) above, with M106A, A110Y counted along it
Description: as §1, §2

[24] = target: T24, NMUR1 H331A (Homo sapiens, UniProt Q9HB89, H331A); test: IP-One assay, NMUR1 H331A; details: mean ± S.E.M., three independent experiments (n=3), SEM, read-out: IP1 accumulation pEC50 ± S.E.M. (converted)
T24 construct: The full-length human NMUR1 and NMUR2 were modified; expressed in transfected cells; host or cells: AD293 cells
T24 sequence (Q9HB89 whole entry H331A): as the sequence (Q9HB89 whole entry F141A) above, with A141F, H331A counted along it
Description: as §1, §2

FRVDEEFQSPFASQSRGYFLFRPRN-NH2 [NMU, neuromedin U]
EC50 [1]: 186 nM
EC50 [2]: 115 nM
EC50 [3]: 70.8 nM
EC50 [4]: 209 nM
EC50 [5]: 9.77 nM
EC50 ([6]; NMUR2 WT, mean ± S.E.M., three independent experiments (n=3), SEM, read-out: IP1 accumulation pEC50 ± S.E.M. (converted)): 0.631 nM
EC50 ([6]; WT NMUR2, Supplementary Fig. 1, three independent experiments, read-out: pEC50 of NMU (converted)): 3.02 nM
EC50 [7]: 155 nM
EC50 [8]: 61.7 nM
EC50 [9]: 43.7 nM
EC50 [10]: 110 nM
EC50 [11]: 2 nM
EC50 [12]: 51.3 nM
EC50 [13]: 7.08 nM
EC50 [14]: 11.5 nM
EC50 [15]: 12.3 nM
EC50 [16]: 1480 nM
EC50 [17]: 2880 nM
EC50 [18]: 2.45 nM
EC50 [19]: 6.92 nM
EC50 [20]: 47.9 nM
EC50 [21]: 7.24 nM
EC50 [22]: 1070 nM
EC50 [23]: 19.5 nM
EC50 [24]: 11.5 nM
